# Experimental data reported in patent publication US20230265151A1, “GIP/GLP1 CO-AGONIST COMPOUNDS” (priority 2020, published 2023).
# Where two headings read alike, the source gives them in different places. *1 amine or outer side, *2 acyl side, *3 side chain or, on linkers, in order; H or OH if unused. Where a SMILES comes first, the peptide text is derived from it. Side-chain parts run from the residue outwards. [ ]: non-standard residue; d: D form. The star is where a group is joined. Undecanoyl(11-OPh(4-COOH)) = O=C(O)c1ccc(OCCCCCCCCCCC(=O)*)cc1; αMePhe(2-F) = C[C@](N)(Cc1ccccc1F)C(=O)O; γGlu = O=C(O)[C@H](CCC(=O)[*:2])N[*:1]; αMeY = C[C@](N)(Cc1ccc(O)cc1)C(=O)O; 4Pal = N[C@@H](Cc1ccncc1)C(=O)O; αMeL = CC(C)C[C@](C)(N)C(=O)O; Orn = NCCC[C@H](N)C(=O)O; AEEA = NCCOCCOCC(=O)O; Aib = CC(C)(N)C(=O)O
# Key:
# Assay type in all cases: cell-based
# hGIPR = target: T1, hGIPR (Homo sapiens, UniProt P48546); assay: Functional cAMP formation (HTRF) in HEK-293 clonal cells expressing hGIPR, 0.1% bovine casein, without or with 1.0% human serum albumin; settings: for EC50: cAMP
# T1 construct: expressed in transfected cells
# T1 sequence (P48546 22-466): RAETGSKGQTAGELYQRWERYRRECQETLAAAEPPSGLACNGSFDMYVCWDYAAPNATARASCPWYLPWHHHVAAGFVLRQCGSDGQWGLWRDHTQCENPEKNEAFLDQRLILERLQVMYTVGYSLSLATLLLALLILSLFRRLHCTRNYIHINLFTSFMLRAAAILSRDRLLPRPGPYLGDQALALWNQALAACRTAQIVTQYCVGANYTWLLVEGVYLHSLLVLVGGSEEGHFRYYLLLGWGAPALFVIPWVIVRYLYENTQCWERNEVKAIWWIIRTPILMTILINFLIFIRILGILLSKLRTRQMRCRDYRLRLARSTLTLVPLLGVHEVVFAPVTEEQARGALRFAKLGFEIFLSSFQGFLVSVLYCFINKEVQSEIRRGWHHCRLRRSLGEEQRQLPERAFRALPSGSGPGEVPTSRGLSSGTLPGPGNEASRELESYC
# In short: (§1)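 Cells were stimulated with peptide for 30 min at 37° C, then intracellular cAMP was measured by competitive HTRF (665/620 nm ratio) and converted to nM using a cAMP standard curve. Relative EC50 and Emax came from four-parameter logistic fits of percent maximal response against peptide concentration.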
# hGCGR = target: T2, hGCGR (Homo sapiens, UniProt P47871); assay: Functional cAMP formation (HTRF) in HEK-293 clonal cells expressing hGCGR, 0.1% bovine casein, without or with 1.0% human serum albumin
# T2 construct: expressed in transfected cells
# In short: as §1
# hGLP-1R = hGLP-1R (Homo sapiens, UniProt P43220); assay: Functional cAMP formation (HTRF) in HEK-293 clonal cells expressing hGLP-1R, 0.1% bovine casein, without or with 1.0% human serum albumin; set-up: expressed in transfected cells; settings: for EC50: cAMP, 0.1% bovine casein (no human serum albumin), geometric mean
# In short: as §1
# [1] = 37° C., 0.1% bovine casein (no human serum albumin), geometric mean, read-out: hGIPR EC50, nM (SEM, n)
# [2] = cAMP, 37° C., 0.1% bovine casein (no human serum albumin), geometric mean, read-out: hGCGR EC50, nM (SEM, n)
# T2 sequence (P47871 26-477): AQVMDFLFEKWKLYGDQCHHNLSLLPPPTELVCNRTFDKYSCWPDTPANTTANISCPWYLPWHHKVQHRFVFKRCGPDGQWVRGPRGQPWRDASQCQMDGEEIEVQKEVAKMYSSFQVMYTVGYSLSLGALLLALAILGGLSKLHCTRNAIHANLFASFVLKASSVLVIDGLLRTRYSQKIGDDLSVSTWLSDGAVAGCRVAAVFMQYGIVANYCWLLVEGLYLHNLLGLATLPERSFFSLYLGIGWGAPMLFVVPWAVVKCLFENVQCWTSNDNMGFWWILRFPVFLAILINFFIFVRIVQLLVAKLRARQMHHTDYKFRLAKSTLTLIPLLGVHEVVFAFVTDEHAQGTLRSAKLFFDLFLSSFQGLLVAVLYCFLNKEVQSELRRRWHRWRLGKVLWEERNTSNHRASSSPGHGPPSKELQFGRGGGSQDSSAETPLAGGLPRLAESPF
# Sequence of hGLP-1R (P43220 24-463): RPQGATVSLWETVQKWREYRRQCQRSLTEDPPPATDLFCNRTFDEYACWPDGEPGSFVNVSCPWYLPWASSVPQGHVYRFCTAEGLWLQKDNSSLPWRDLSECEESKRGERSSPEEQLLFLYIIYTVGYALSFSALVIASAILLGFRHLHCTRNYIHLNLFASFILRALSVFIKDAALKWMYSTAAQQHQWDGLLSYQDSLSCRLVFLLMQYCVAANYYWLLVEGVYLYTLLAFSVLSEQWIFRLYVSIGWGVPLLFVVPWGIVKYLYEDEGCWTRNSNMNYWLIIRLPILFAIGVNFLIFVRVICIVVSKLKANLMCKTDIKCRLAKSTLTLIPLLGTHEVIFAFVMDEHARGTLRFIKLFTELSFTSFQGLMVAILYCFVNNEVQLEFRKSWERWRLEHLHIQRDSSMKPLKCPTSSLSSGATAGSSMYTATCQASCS
structure (smiles),measurement,setting,value
CC[C@H](C)[C@H](NC(=O)[C@H](CCCN)NC(=O)[C@H](CC(=O)O)NC(=O)[C@H](CC(C)C)NC(=O)[C@](C)(CC(C)C)NC(=O)[C@@H](NC(=O)[C@H](CO)NC(=O)[C@H](Cc1ccc2ccccc2c1)NC(=O)[C@H](CC(=O)O)NC(=O)[C@H](CO)NC(=O)[C@@H](NC(=O)[C@](C)(Cc1ccccc1F)NC(=O)[C@@H](NC(=O)CNC(=O)[C@H](CCC(=O)O)NC(=O)C(C)(C)NC(=O)[C@@H](N)Cc1ccc(O)cc1)[C@@H](C)O)[C@@H](C)O)[C@@H](C)CC)C(=O)N[C@@H](C)C(=O)N[C@@H](CCC(N)=O)C(=O)NC(C)(C)C(=O)N[C@@H](CCCCNC(=O)COCCOCCNC(=O)COCCOCCNC(=O)CCCCCCCCCCCCC(=O)O)C(=O)N[C@@H](Cc1ccccc1)C(=O)N[C@H](C(=O)N[C@H](CCC(=O)O)C(=O)N[C@@](C)(Cc1ccc(O)cc1)C(=O)N[C@@H](CC(C)C)C(=O)N[C@H](C(=O)N[C@@H](CCC(=O)O)C(=O)NCC(=O)NCC(=O)N1CCC[C@H]1C(=O)N[C@@H](CO)C(=O)N[C@@H](CO)C(=O)NCC(=O)N[C@@H](C)C(=O)N1CCC[C@H]1C(=O)N1CCC[C@H]1C(=O)N1CCC[C@H]1C(=O)N[C@@H](CO)C(=O)N[C@@H](CCCCNC(=O)COCCOCCNC(=O)COCCOCCNC(=O)CCCCCCCCCCCCC(=O)O)C(N)=O)[C@@H](C)CC)[C@@H](C)CC [Example 258],Emax,"hGIPR; HEK293, cAMP, 37° C., 0.1% bovine casein, percent of maximal response to GIP(1-42)NH2, arithmetic mean, read-out: hGIPR Emax, % ± SEM",90.3%
same,EC50,hGIPR; [1],0.0473 nM
same,EC50,"hGCGR; 0.1% bovine casein and 1.0% human serum albumin, 37° C., geometric mean, read-out: hGCGR EC50, nM (SEM, n)",> 9950 nM
same,EC50,hGCGR; [2],> 9950 nM
same,Emax,"hGLP-1R; HEK293, cAMP, 37° C., 0.1% bovine casein, percent of maximal response to GLP-1(7-36)NH2, arithmetic mean, read-out: hGLP-1R Emax, % ± SEM",94.9%
CC[C@H](C)[C@H](NC(=O)[C@H](CC(C)C)NC(=O)[C@](C)(Cc1ccc(O)cc1)NC(=O)[C@@H](CCC(=O)O)NC(=O)[C@@H](NC(=O)[C@H](Cc1ccccc1)NC(=O)[C@H](CCC(=O)O)NC(=O)C(C)(C)NC(=O)[C@H](CCC(N)=O)NC(=O)[C@H](C)NC(=O)[C@H](CCCCNC(=O)COCCOCCNC(=O)COCCOCCNC(=O)CC[C@H](NC(=O)CCCCCCCCCOc1ccc(C(=O)O)cc1)C(=O)O)NC(=O)[C@H](CCCN)NC(=O)[C@H](CC(=O)O)NC(=O)[C@H](CC(C)C)NC(=O)[C@](C)(CC(C)C)NC(=O)[C@@H](NC(=O)C(C)(C)NC(=O)[C@@H](NC(=O)[C@H](CC(=O)O)NC(=O)[C@H](CO)NC(=O)[C@@H](NC(=O)[C@](C)(Cc1ccccc1F)NC(=O)[C@@H](NC(=O)CNC(=O)[C@H](CCC(=O)O)NC(=O)C(C)(C)NC(=O)[C@@H](N)Cc1ccc(O)cc1)[C@@H](C)O)[C@@H](C)O)C(C)C)[C@@H](C)CC)[C@@H](C)CC)C(=O)N[C@@H](CCCCNC(=O)COCCOCCNC(=O)COCCOCCNC(=O)CC[C@H](NC(=O)CCCCCCCCCOc1ccc(C(=O)O)cc1)C(=O)O)C(=O)NCC(=O)NCC(=O)N1CCC[C@H]1C(=O)N[C@@H](CO)C(=O)N[C@@H](CO)C(=O)NCC(=O)N[C@@H](C)C(=O)N1CCC[C@H]1C(=O)N1CCC[C@H]1C(=O)N1CCC[C@H]1C(=O)N[C@@H](CO)C(N)=O [Example 326],Emax,"hGIPR; HEK293, read-out: hGIPR Emax, % ± SEM, cAMP, 37° C., 0.1% bovine casein and 1.0% human serum albumin, percent of maximal response to GIP(1-42)NH2",88.7%
same,EC50,"hGIPR; hGIPR EC50, nM (SEM, n), 37° C., 0.1% bovine casein (no human serum albumin), geometric mean",0.0338 nM
same,EC50,"hGCGR; hGCGR EC50, nM (SEM, n), cAMP, 37° C., 0.1% bovine casein (no human serum albumin), geometric mean",> 9950 nM
same,EC50,"hGCGR; hGCGR EC50, nM (SEM, n), cAMP, 37° C., 0.1% bovine casein and 1.0% human serum albumin, geometric mean (SEM, n)",> 9950 nM
same,Emax,"hGLP-1R; HEK293, read-out: hGLP-1R Emax, % ± SEM, cAMP, 37° C., 0.1% bovine casein and 1.0% human serum albumin, percent of maximal response to GLP-1(7-36)NH2",96.1%
same,Emax,"hGLP-1R; HEK293, read-out: hGLP-1R Emax, % ± SEM, cAMP, 37° C., 0.1% bovine casein, percent of maximal response to GLP-1(7-36)NH2, arithmetic mean",94.4%
same,EC50,"hGLP-1R; hGLP-1R EC50, nM (SEM, n), 37° C.",0.186 nM
CC[C@H](C)[C@H](NC(=O)[C@H](CC(C)C)NC(=O)[C@](C)(Cc1ccc(O)cc1)NC(=O)[C@@H](CCC(=O)O)NC(=O)[C@@H](NC(=O)[C@H](Cc1ccccc1)NC(=O)[C@H](CCC(=O)O)NC(=O)C(C)(C)NC(=O)[C@H](CCC(N)=O)NC(=O)[C@H](C)NC(=O)[C@H](CCCCNC(=O)COCCOCCNC(=O)COCCOCCNC(=O)CC[C@H](NC(=O)CCCCCCCCCCCCC(=O)O)C(=O)O)NC(=O)[C@H](CCCN)NC(=O)[C@H](CC(=O)O)NC(=O)[C@H](CC(C)C)NC(=O)[C@](C)(CC(C)C)NC(=O)[C@@H](NC(=O)C(C)(C)NC(=O)[C@H](Cc1ccncc1)NC(=O)[C@H](CC(=O)O)NC(=O)[C@H](CO)NC(=O)[C@@H](NC(=O)[C@](C)(Cc1ccccc1F)NC(=O)[C@@H](NC(=O)CNC(=O)[C@H](CCC(=O)O)NC(=O)C(C)(C)NC(=O)[C@@H](N)Cc1ccc(O)cc1)[C@@H](C)O)[C@@H](C)O)[C@@H](C)CC)[C@@H](C)CC)C(=O)N[C@@H](CCCCNC(=O)COCCOCCNC(=O)COCCOCCNC(=O)CC[C@H](NC(=O)CCCCCCCCCCCCC(=O)O)C(=O)O)C(=O)NCC(=O)NCC(=O)N1CCC[C@H]1C(=O)N[C@@H](CO)C(=O)N[C@@H](CO)C(=O)NCC(=O)N[C@@H](C)C(=O)N1CCC[C@H]1C(=O)N1CCC[C@H]1C(=O)N1CCC[C@H]1C(=O)N[C@@H](CO)C(N)=O [Example 358],Emax,"hGIPR; HEK293, cAMP, 37° C., 0.1% bovine casein and 1.0% human serum albumin, percent of maximal response to GIP(1-42)NH2, read-out: hGIPR Emax, % ± SEM",86.2%
same,EC50,hGIPR; [1],0.0137 nM
same,EC50,"hGIPR; 37° C., 0.1% bovine casein and 1.0% human serum albumin, geometric mean (SEM, n), read-out: hGIPR EC50, nM (SEM, n)",2.06 nM
same,EC50,hGCGR; [2],> 10100 nM
same,EC50,"hGCGR; cAMP, 37° C., 0.1% bovine casein and 1.0% human serum albumin, geometric mean (SEM, n), read-out: hGCGR EC50, nM (SEM, n)",> 9950 nM
same,EC50,"hGLP-1R; 37° C., read-out: hGLP-1R EC50, nM (SEM, n)",0.773 nM
CC[C@H](C)[C@H](NC(=O)[C@H](CCCN)NC(=O)[C@H](CC(=O)O)NC(=O)[C@H](CC(C)C)NC(=O)[C@](C)(CC(C)C)NC(=O)[C@@H](NC(=O)C(C)(C)NC(=O)[C@H](Cc1ccncc1)NC(=O)[C@H](CC(=O)O)NC(=O)[C@H](CO)NC(=O)[C@@H](NC(=O)[C@](C)(Cc1ccccc1F)NC(=O)[C@@H](NC(=O)CNC(=O)[C@H](CCC(=O)O)NC(=O)C(C)(C)NC(=O)[C@@H](N)Cc1ccc(O)cc1)[C@@H](C)O)[C@@H](C)O)[C@@H](C)CC)C(=O)N[C@@H](C)C(=O)N[C@@H](CCC(N)=O)C(=O)NC(C)(C)C(=O)N[C@@H](CCCCNC(=O)COCCOCCNC(=O)COCCOCCNC(=O)CC[C@H](NC(=O)CCCCCCCCCCOc1ccc(C(=O)O)cc1)C(=O)O)C(=O)N[C@@H](Cc1ccccc1)C(=O)N[C@H](C(=O)N[C@H](CCC(=O)O)C(=O)N[C@@](C)(Cc1ccc(O)cc1)C(=O)N[C@@H](CC(C)C)C(=O)N[C@H](C(=O)N[C@@H](CCC(=O)O)C(=O)NCC(=O)NCC(=O)N1CCC[C@H]1C(=O)N[C@@H](CO)C(=O)N[C@@H](CO)C(=O)NCC(=O)N[C@@H](C)C(=O)N1CCC[C@H]1C(=O)N1CCC[C@H]1C(=O)N1CCC[C@H]1C(=O)N[C@@H](CO)C(=O)N[C@@H](CCCCNC(=O)COCCOCCNC(=O)COCCOCCNC(=O)CC[C@H](NC(=O)CCCCCCCCCCOc1ccc(C(=O)O)cc1)C(=O)O)C(N)=O)[C@@H](C)CC)[C@@H](C)CC [Example 242] (H-Y[Aib]EGT[αMePhe(2-F)]TSD[4Pal][Aib]I[αMeL]LD[Orn]IAQ[Aib]K([AEEA-AEEA-γGlu-Undecanoyl(11-OPh(4-COOH))])FI[dE][αMeY]LIEGGPSSGAPPPSK([AEEA-AEEA-γGlu-Undecanoyl(11-OPh(4-COOH))])-NH2),Emax,"hGIPR; HEK293, read-out: hGIPR Emax, % ± SEM, 0.1% bovine casein and 1.0% human serum albumin, 37° C., percent of maximal response to GIP(1-42)NH2",83.9%
same,Emax,"hGIPR; HEK293, read-out: hGIPR Emax, % ± SEM, percent of maximal response to GIP(1-42)NH2, 37° C., 0.1% bovine casein, arithmetic mean",100%
same,EC50,"hGIPR; hGIPR EC50, nM (SEM, n), incubated at 37° C., 0.1% bovine casein (no human serum albumin), geometric mean",0.0197 nM
same,EC50,"hGCGR; hGCGR EC50, nM (SEM, n), 0.1% bovine casein and 1.0% human serum albumin, 37° C., geometric mean",> 9950 nM
same,EC50,"hGCGR; hGCGR EC50, nM (SEM, n), cAMP, incubated at 37° C., 0.1% bovine casein (no human serum albumin), geometric mean",> 9950 nM
same,Emax,"hGLP-1R; HEK293, read-out: hGLP-1R Emax, % ± SEM, percent of maximal response to GLP-1(7-36)NH2, 37° C., 0.1% bovine casein, arithmetic mean",96.3%
same,EC50,"hGLP-1R; hGLP-1R EC50, nM (SEM, n), incubated at 37° C.",0.584 nM
